Source: patent US5149834A, “4-Hydroxytetrahydropyran-2-one derivatives” (Fujirebio Inc., priority 1990, dated 1992)

Tests used:
[1] = target: T1, HMG Co-A Reductase (Rattus norvegicus, UniProt P51639); assay: Measurement of inhibiting effect on HMG Co-A reductase (inhibiting ratio of biosynthesis of cholesterol); assay type: biochemical; details: 0.1 μM samples, compactin = 100
T1 construct: from tissue
T1 sequence (P51639 1-887): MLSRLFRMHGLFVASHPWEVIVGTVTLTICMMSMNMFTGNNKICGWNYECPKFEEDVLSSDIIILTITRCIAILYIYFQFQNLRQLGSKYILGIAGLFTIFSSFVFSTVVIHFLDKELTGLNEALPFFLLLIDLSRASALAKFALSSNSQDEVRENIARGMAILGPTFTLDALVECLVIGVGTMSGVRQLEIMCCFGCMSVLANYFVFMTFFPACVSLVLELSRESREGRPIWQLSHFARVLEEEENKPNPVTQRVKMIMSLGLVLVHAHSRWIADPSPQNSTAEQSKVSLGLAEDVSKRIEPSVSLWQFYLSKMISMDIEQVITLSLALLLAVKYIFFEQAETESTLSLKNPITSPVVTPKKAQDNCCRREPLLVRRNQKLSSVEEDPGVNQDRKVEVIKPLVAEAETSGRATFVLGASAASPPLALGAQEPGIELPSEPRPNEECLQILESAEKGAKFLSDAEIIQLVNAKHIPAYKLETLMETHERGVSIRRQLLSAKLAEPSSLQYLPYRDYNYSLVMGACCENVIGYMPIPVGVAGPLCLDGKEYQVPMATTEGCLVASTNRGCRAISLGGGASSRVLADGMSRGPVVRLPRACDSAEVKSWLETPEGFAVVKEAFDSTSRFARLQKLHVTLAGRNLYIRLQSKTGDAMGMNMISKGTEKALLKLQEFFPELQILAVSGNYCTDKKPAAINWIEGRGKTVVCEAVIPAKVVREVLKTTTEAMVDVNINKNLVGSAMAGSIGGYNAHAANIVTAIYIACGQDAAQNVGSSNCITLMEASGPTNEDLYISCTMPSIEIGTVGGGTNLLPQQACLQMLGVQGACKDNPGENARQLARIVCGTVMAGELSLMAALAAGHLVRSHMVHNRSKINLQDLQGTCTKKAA
Description: The inhibiting effect on HMG Co-A Reductase of representative examples of the 4-hydroxytetrahydropyran-2-one derivatives prepared in the above-discussed examples was measured in accordance with the method described in Journal of Biological Chemistry (J. Biol. Chem.) Vol. 234, page 2835 (1959) in order to investigate the inhibiting activity of each derivative in terms of the inhibiting ratio of the biosynthesis of cholesterol.

[2] = test system: rat brain homogenate; assay: Anti-oxidation function: inhibition of automatic ABARTS reproduction of rat brain homogenate; assay type: biochemical; details: vitamin E as reference = 100
Description: The anti-oxidation function of some examples of the 4-hydroxytetrahydropyran-2-one derivatives prepared in the above-discussedexamples was measured as a reference of the inhibition function of the automatic ABARTS reproduction of the rat brain homogenate in accordance with the method described in Nippon Yakuri-shi 87, 427-434 (1986) by K. Shintomi et al.

| Molecule | Inhibiting Activity (Inhibiting Ratio of Biosynthesis of Cholesterol), relative value when the value of compactin is 100 [1] | Anti-oxidation Function [2] |
| --- | --- | --- |
| Cc1c(CC[C@@H]2C[C@@H](O)CC(=O)O2)c2c(c(C)c1OCc1ccccc1)CCC(C)(C)O2 (relative stereo) [Compound No. 45] | 39 |  |
| Cc1c(CC[C@@H]2C[C@@H](O)CC(=O)O2)c2c(c(C)c1OCc1ccccc1)CC(C)(C)O2 (relative stereo) [Compound No. 13, trans-(±)-6-(5-benzyloxy-2,3-dihydro-2,2,4,6-tetramethylbenzo[b]furan-7-ethyl-4-hydroxytetrahydropyran-2-one] | 50 |  |
| Cc1c(O)c(C)c2c(c1CC[C@@H]1C[C@@H](O)CC(=O)O1)OC(C)(C)CC2 (relative stereo) [Compound No. 46, trans-(±)-6-[(6-hydroxy-2,2,5,7-tetramethyl)chroman-8-yl]ethyl-4-hydroxytetrahydropyran-2-one] | 28 | 106 |
| Cc1c2c(c(CC[C@H]3C[C@H](O)CC(=O)O3)c(C(C)C)c1OCc1ccccc1)OC(C)(C)C2 (racemic) [Compound No. 81, trans-(±)-6-[5-benzyloxy-2,3-dihydro-6-(2-propyl)-2,2,4-trimethylbenzo[b]furan-7-yl]ethyl-4-hydroxytetrahydropyran-2-one] | 427 |  |
| Cc1c(CC[C@@H]2C[C@@H](O)CC(=O)O2)c2c(c(C)c1OC(=O)c1cccnc1)CCC(C)(C)O2 (relative stereo) [Compound No. 52, trans-(±)-6-[[6-pyridine-3-carboxy)-2,2,5,7-tetramethyl]-chroman-8-yl]ethyl-4-hydroxytetrahydropyran-2-one] | 18 | 19 |
| Cc1c2c(c(CC[C@H]3C[C@H](O)CC(=O)O3)c(C(C)(C)C)c1OCc1ccccc1)OC(C)(C)C2 (racemic) [Compound No. 112, trans-(±)-6-[5-benzyloxy-6-(t-butyl)-2,3-dihydro-2,2,4-trimethylbenzo[b]furan-7-yl]ethyl-4-hydroxytetrahydropyran-2-one] | 190 |  |
| CC(=O)Oc1c(C)c(CC[C@@H]2C[C@@H](O)CC(=O)O2)c2c(c1C)CCC(C)(C)O2 (relative stereo) [Compound No. 50, trans-(±)-6-[(6-acetoxy-2,2,5,7-tetramethyl)chroman-8-yl]ethyl-4-hydroxytetrahydropyran-2-one] | 12 | 106 |
| CC1(C)Cc2cc(OCc3ccccc3)c(C(C)(C)C)c(CC[C@H]3C[C@H](O)CC(=O)O3)c2O1 (racemic) [Compound No. 124, trans-(±)-6-[5-benzyloxy-6-(t-butyl)-2,3-dihydro-2,2-dimethylbenzo[b]furan-7-yl]ethyl-4-hydroxytetrahydropyran-2-one] | 300 |  |
| Cc1c(O)c(C)c2c(c1CC[C@H]1C[C@H](O)CC(=O)O1)OC(C)(C)C2 (racemic) [Compound No. 14, trans-(±)-6-(2,3-dihydro-5-hydroxy-2,2,4,6-tetramethylbenzo[b]furan-7-yl)ethyl-4-hydroxytetrahydropyran-2-one] | 11 | 106 |
| Cc1c(CC[C@@H]2C[C@@H](O)CC(=O)O2)c2c(c(C)c1OC(=O)c1cccnc1)CC(C)(C)O2 (relative stereo) [Compound No. 31, trans-(±)-6-[2,3-dihydro-5-(pyridine-3-carboxy)-2,2,4,6-tetramethylbenzo[b]furan-7-yl]ethyl-4-hydroxytetrahydropyran-2-one] | 90 |  |
| CC(=O)Oc1c(C)c(CC[C@H]2C[C@H](O)CC(=O)O2)c2c(c1C)CC(C)(C)O2 (racemic) [Compound No. 33, trans-(±)-6-(5-acetoxy-2,3-dihydro-2,2,4,6-tetramethylbenzo[b]furan-7-yl)ethyl-4-hydroxytetrahydropyran-2-one] | 21 |  |
| Cc1c2c(c(CC[C@@H]3C[C@@H](O)CC(=O)O3)c(C(C)C)c1OC(=O)c1cccnc1)OC(C)(C)C2 (relative stereo) [Compound No. 156, trans-(±)-6-[2,3-dihydro-6-(2-propyl)-5-(pyridine-3-carboxy)-2,2,4-trimethylbenzo[b]furan-7-yl]ethyl-4-hydroxytetrahydropyran-2-one] | 180 |  |
| CC(C)c1c(OCc2ccccc2)cc2c(c1CC[C@H]1C[C@H](O)CC(=O)O1)OC(C)(C)C2 (racemic) [Compound No. 154, trans-(±)-6-[5-benzyloxy-2,3-dihydro-2,2-dimethyl-6-(2-propyl)benzo[b]furan-7-yl]ethyl-4-hydroxytetrahydropyran-2-one] | 250 |  |
| Vitamin E [reference compound] |  | 100 |
